In ChEMBL document CHEMBL4831541, “Antibiotic Conjugates with an Artificial MECAM-Based Siderophore Are Potent Agents against Gram-Positive and Gram-Negative Bacterial Pathogens” (2021):
Converted amounts (≈) assume the structure as drawn. The source made the active and inactive calls. The calls are words filed in the database; no cut-off is given here.

How the values were obtained:
Enterococcus faecium = assay: Antibacterial activity against Enterococcus faecium DSM20477 assessed as growth inhibition by measuring minimal concentration at OD600 by visual inspection with iron-limited media incubated for 24 hrs; assay type: functional
Staphylococcus aureus = assay: Antibacterial activity against Staphylococcus aureus DSM11822 assessed as growth inhibition by measuring minimal concentration at OD600 by visual inspection with iron-limited media incubated for 24 hrs; assay type: functional
Acinetobacter baumannii = assay: Antibacterial activity against Acinetobacter baumannii DSM30007 assessed as growth inhibition by measuring minimal concentration at OD600 by visual inspection with iron-limited media incubated for 24 hrs; assay type: functional
Escherichia coli [1] = assay: Antibacterial activity against Escherichia coli BW25113 assessed as growth inhibition by measuring minimal concentration at OD600 by visual inspection with iron-limited media incubated for 24 hrs; assay type: functional
Klebsiella pneumoniae = assay: Antibacterial activity against Klebsiella pneumoniae DSM11678 assessed as growth inhibition by measuring minimal concentration at OD600 by visual inspection with iron-limited media incubated for 24 hrs; assay type: functional, organism-based
Pseudomonas aeruginosa = assay: Antibacterial activity against Pseudomonas aeruginosa DSM24068 assessed as growth inhibition by measuring minimal concentration at OD600 by visual inspection with iron-limited media incubated for 24 hrs; assay type: functional, organism-based
Escherichia coli [2] = assay: Antibacterial activity against Escherichia coli delta tonB assessed as growth inhibition by measuring minimal concentration at OD600 by visual inspection with iron-limited media incubated for 24 hrs; assay type: functional
Escherichia coli [3] = assay: Antibacterial activity against Escherichia coli delta cirA assessed as growth inhibition by measuring minimal concentration at OD600 by visual inspection with iron-limited media incubated for 24 hrs; assay type: functional
Escherichia coli [4] = assay: Antibacterial activity against Escherichia coli delta fepA delta cirA assessed as growth inhibition by measuring minimal concentration at OD600 by visual inspection with iron-limited media incubated for 24 hrs; assay type: functional
Escherichia coli [5] = assay: Antibacterial activity against Escherichia coli delta […] delta fiu assessed as growth inhibition by measuring minimal concentration at OD600 by visual inspection with iron-limited media incubated for 24 hrs; assay type: functional
Escherichia coli [6] = assay: Antibacterial activity against Escherichia coli delta fepD assessed as growth inhibition by measuring minimal concentration at OD600 by visual inspection with iron-limited media incubated for 24 hrs; assay type: functional
Escherichia coli [7] = assay: Antibacterial activity against Escherichia coli delta cirA delta fiu assessed as growth inhibition by measuring minimal concentration at OD600 by visual inspection with iron-limited media incubated for 24 hrs; assay type: functional
Escherichia coli [8] = assay: Antibacterial activity against Escherichia coli delta fepB assessed as growth inhibition by measuring minimal concentration at OD600 by visual inspection with iron-limited media incubated for 24 hrs; assay type: functional
Escherichia coli [9] = assay: Antibacterial activity against Escherichia coli delta fiu assessed as growth inhibition by measuring minimal concentration at OD600 by visual inspection with iron-limited media incubated for 24 hrs; assay type: functional
Escherichia coli [10] = assay: Antibacterial activity against Escherichia coli delta exbB assessed as growth inhibition by measuring minimal concentration at OD600 by visual inspection with iron-limited media incubated for 24 hrs; assay type: functional
Escherichia coli [11] = assay: Antibacterial activity against Escherichia coli delta fepA assessed as growth inhibition by measuring minimal concentration at OD600 by visual inspection with iron-limited media incubated for 24 hrs; assay type: functional
Escherichia coli [12] = assay: Antibacterial activity against wild type Escherichia coli BW25113 assessed as growth inhibition by measuring minimal concentration at OD600 by visual inspection with iron-limited media incubated for 24 hrs; assay type: functional
Escherichia coli [13] = assay: Antibacterial activity against Escherichia coli delta fepA delta cirA delta fiu assessed as growth inhibition by measuring minimal concentration at OD600 by visual inspection with iron-limited media incubated for 24 hrs; assay type: functional
Escherichia coli [14] = assay: Recovery of growth in Escherichia coli BW25113 delta entA assessed as reversal of growth at 10 uM in presence of 0.1 uM iron(III) chloride hexahydrate by growth recovery assay; assay type: functional, organism-based
Escherichia coli [15] = assay: Drug uptake in Escherichia coli BW25113 delta entA assessed in peri-plasmic fraction pre-treated at 10 uM in presence of 0.1 uM iron(III) chloride hexahydrate by mass spectrometry based cell fractionation assay; assay type: functional, organism-based
[16] = Metal chelating activity assessed as Fe3+-compound complex formation measured after 17 hrs by chrome azurol S dye based colorimetric assay
Escherichia coli [17] = assay: Drug uptake in Escherichia coli BW25113 delta entA assessed in cytoplasmic fraction pre-treated at 10 uM in presence of 0.1 uM iron(III) chloride hexahydrate by mass spectrometry based cell fractionation assay; assay type: functional, organism-based
Escherichia coli [18] = assay: Drug uptake in Escherichia coli BW25113 delta entA assessed in membrane fraction pre-treated at 10 uM in presence of 0.1 uM iron(III) chloride hexahydrate by mass spectrometry based cell fractionation assay; assay type: functional, organism-based
Escherichia coli [19] = assay: Antibacterial activity against Escherichia coli K-12 BW25113 delta cyoB assessed as growth inhibition by measuring minimal concentration at OD600 measured after reintroduction of plasmid expressing cyoB G269D mutant by visual inspection with iron-limited media incubated for 24 hrs; assay type: functional
Escherichia coli [20] = assay: Antibacterial activity against Escherichia coli K-12 BW25113 delta exbB assessed as growth inhibition by measuring minimal concentration at OD600 by visual inspection measured after reintroduction of plasmid expressing full length exbB with iron-limited media incubated for 24 hrs; assay type: functional
Escherichia coli [21] = assay: Antibacterial activity against Escherichia coli K-12 BW25113 assessed as growth inhibition after 21 serial passages by measuring minimal concentration at OD600 by visual inspection with iron-limited media incubated for 24 hrs; assay type: functional
Escherichia coli [22] = assay: Antibacterial activity against Escherichia coli K-12 BW25113 delta exbB assessed as growth inhibition by measuring minimal concentration at OD600 by visual inspection measured after reintroduction of plasmid expressing exbB Q163 mutant with iron-limited media incubated for 24 hrs; assay type: functional
Escherichia coli [23] = assay: Antibacterial activity against Escherichia coli K-12 BW25113 delta cyoB assessed as growth inhibition by measuring minimal concentration at OD600 by visual inspection with iron-limited media incubated for 24 hrs; assay type: functional

Row | SMILES | MIC (Enterococcus faecium) | MIC (Staphylococcus aureus) | MIC (Acinetobacter baumannii) | MIC (Escherichia coli [1]) | Activity (Klebsiella pneumoniae) | Activity (Pseudomonas aeruginosa) | MIC (Escherichia coli [2]) | MIC (Escherichia coli [3]) | MIC (Escherichia coli [4]) | MIC (Escherichia coli [5]) | MIC (Escherichia coli [6]) | MIC (Escherichia coli [7]) | MIC (Escherichia coli [8]) | MIC (Escherichia coli [9]) | MIC (Escherichia coli [10]) | MIC (Escherichia coli [11]) | MIC (Escherichia coli [13]) | also measured
1 | CC1(C)S[C@@H]2[C@H](NC(=O)[C@H](N)c3ccc(O)cc3)C(=O)N2[C@H]1C(=O)O [AMOXICILLIN] | 1.3 µM (≈ 0.475 µg/mL) | > 175 µM | > 175 µM | 18 µM (≈ 6.58 µg/mL) | – | – | – | – | – | – | – | – | – | – | – | – | – | –
2 | CCCCCCCCCC(=O)N[C@@H](Cc1c[nH]c2ccccc12)C(=O)N[C@H](CC(N)=O)C(=O)N[C@@H](CC(=O)O)C(=O)N[C@@H]1C(=O)NCC(=O)N[C@@H](CCCNC(=O)CCCCCn2cc(CCCC(=O)Nc3c(CNC(=O)c4cccc(O)c4O)cc(CNC(=O)c4cccc(O)c4O)cc3CNC(=O)c3cccc(O)c3O)nn2)C(=O)N[C@@H](CC(=O)O)C(=O)N[C@H](C)C(=O)N[C@@H](CC(=O)O)C(=O)NCC(=O)N[C@H](CO)C(=O)N[C@@H]([C@@H](C)CC(=O)O)C(=O)N[C@@H](CC(=O)c2ccccc2N)C(=O)O[C@@H]1C | 13 µM (≈ 31.8 µg/mL) | 8.7 µM (≈ 21.3 µg/mL) | 4.4 µM (≈ 10.7 µg/mL) | > 64 µM | inactive | inactive | – | – | – | – | – | – | – | – | – | – | – | –
3 | CC(C)(O/N=C(\C(=O)N[C@@H]1C(=O)N2C(C(=O)[O-])=C(C[N+]3(CCNC(=O)c4ccc(O)c(O)c4Cl)CCCC3)CS[C@H]12)c1csc(N)n1)C(=O)O [CEFIDEROCOL] | > 85 µM | > 85 µM | 0.053 µM (≈ 0.0399 µg/mL) | 0.042 µM (≈ 0.0316 µg/mL) | – | – | > 21 µM | 0.66 µM (≈ 0.496 µg/mL) | 0.17 µM (≈ 0.128 µg/mL) | 0.66 µM (≈ 0.496 µg/mL) | 0.083 µM (≈ 0.0624 µg/mL) | 21 µM (≈ 15.8 µg/mL) | 0.083 µM (≈ 0.0624 µg/mL) | 0.66 µM (≈ 0.496 µg/mL) | 5.3 µM (≈ 3.99 µg/mL) | 0.17 µM (≈ 0.128 µg/mL) | > 21 µM | MIC (Escherichia coli [12]): 33 µM (≈ 24.8 µg/mL)
4 | CC(=O)Oc1cccc(C(=O)NCc2cc(CNC(=O)c3cccc(OC(C)=O)c3OC(C)=O)c(CNC(=O)c3cccc(OC(C)=O)c3OC(C)=O)c([N+](=O)[O-])c2)c1OC(C)=O | – | – | – | – | – | – | – | – | – | – | – | – | – | – | – | – | – | Activity (Escherichia coli [14]): Active
5 | O=C(NCc1cc(CNC(=O)c2cccc(O)c2O)c([N+](=O)[O-])c(CNC(=O)c2cccc(O)c2O)c1)c1cccc(O)c1O | – | – | – | – | – | – | – | – | – | – | – | – | – | – | – | – | – | Drug uptake (Escherichia coli [15]): Active; Activity [16]: Active; Drug uptake (Escherichia coli [17]): inactive; Drug uptake (Escherichia coli [18]): Active; Activity (Escherichia coli [14]): Active
6 | CC(=O)Oc1cccc(C(=O)NCc2cc(CNC(=O)c3cccc(OC(C)=O)c3OC(C)=O)c(NC(=O)CCCc3cn(CCC(=O)N[C@@H](C(=O)N[C@@H]4C(=O)N5[C@@H]4SC(C)(C)[C@@H]5C(=O)O)c4ccc(O)cc4)nn3)c(CNC(=O)c3cccc(OC(C)=O)c3OC(C)=O)c2)c1OC(C)=O | > 46 µM | > 46 µM | 46 µM (≈ 64.3 µg/mL) | 1.4 µM (≈ 1.96 µg/mL) | inactive | inactive | – | – | – | – | – | – | – | – | – | – | – | –
7 | CC1(C)S[C@@H]2[C@H](NC(=O)[C@H](N)c3ccccc3)C(=O)N2[C@H]1C(=O)O [AMPICILLIN] | 2.7 µM (≈ 0.943 µg/mL) | > 183 µM | > 183 µM | 19 µM (≈ 6.64 µg/mL) | – | – | 46 µM (≈ 16.1 µg/mL) | 46 µM (≈ 16.1 µg/mL) | 46 µM (≈ 16.1 µg/mL) | 46 µM (≈ 16.1 µg/mL) | 46 µM (≈ 16.1 µg/mL) | 46 µM (≈ 16.1 µg/mL) | 46 µM (≈ 16.1 µg/mL) | 46 µM (≈ 16.1 µg/mL) | 46 µM (≈ 16.1 µg/mL) | 46 µM (≈ 16.1 µg/mL) | 46 µM (≈ 16.1 µg/mL) | MIC (Escherichia coli [12]): 46 µM (≈ 16.1 µg/mL)
8 | CC(=O)Oc1cccc(C(=O)NCc2cc(CNC(=O)c3cccc(OC(C)=O)c3OC(C)=O)c(NC(=O)CCCc3cn(CCC(=O)N[C@@H](C(=O)N[C@@H]4C(=O)N5[C@@H]4SC(C)(C)[C@@H]5C(=O)O)c4ccccc4)nn3)c(CNC(=O)c3cccc(OC(C)=O)c3OC(C)=O)c2)c1OC(C)=O | 0.62 µM (≈ 0.856 µg/mL) | 0.12 µM (≈ 0.166 µg/mL) | ≤ 0.09 µM | ≤ 0.09 µM | inactive | inactive | > 12 µM | 2.9 µM (≈ 4.01 µg/mL) | 1.5 µM (≈ 2.07 µg/mL) | 1.5 µM (≈ 2.07 µg/mL) | 1.5 µM (≈ 2.07 µg/mL) | 2.9 µM (≈ 4.01 µg/mL) | 2.9 µM (≈ 4.01 µg/mL) | 1.5 µM (≈ 2.07 µg/mL) | > 12 µM | 2.9 µM (≈ 4.01 µg/mL) | > 12 µM | MIC (Escherichia coli [19]): 2.9 µM (≈ 4.01 µg/mL); MIC (Escherichia coli [20]): 2.9 µM (≈ 4.01 µg/mL); MIC (Escherichia coli [21]): > 12 µM; Activity (Escherichia coli [12]): inactive; MIC (Escherichia coli [22]): > 12 µM; MIC (Escherichia coli [23]): 2.9 µM (≈ 4.01 µg/mL)
